ChEMBL document CHEMBL1132331, “Synthesis and biological activity of the superestrogen (E)-17-oximino-3-O-sulfamoyl-1,3,5(10)-estratriene: x-ray crystal structure of (E)-17-oximino-3-hydroxy-1,3,5(10)-estratriene” (J Med Chem, 1999)
pIC50: −log10 of the molar value.

Key:
[1] = molecular target: T1, Steryl-sulfatase (Homo sapiens) (UniProt P08842); test: Inhibition of estrone sulfatase in MCF-7 breast cancer cells at 0.1 uM; type: cell-based; settings: MCF7
T1 sequence (whole entry): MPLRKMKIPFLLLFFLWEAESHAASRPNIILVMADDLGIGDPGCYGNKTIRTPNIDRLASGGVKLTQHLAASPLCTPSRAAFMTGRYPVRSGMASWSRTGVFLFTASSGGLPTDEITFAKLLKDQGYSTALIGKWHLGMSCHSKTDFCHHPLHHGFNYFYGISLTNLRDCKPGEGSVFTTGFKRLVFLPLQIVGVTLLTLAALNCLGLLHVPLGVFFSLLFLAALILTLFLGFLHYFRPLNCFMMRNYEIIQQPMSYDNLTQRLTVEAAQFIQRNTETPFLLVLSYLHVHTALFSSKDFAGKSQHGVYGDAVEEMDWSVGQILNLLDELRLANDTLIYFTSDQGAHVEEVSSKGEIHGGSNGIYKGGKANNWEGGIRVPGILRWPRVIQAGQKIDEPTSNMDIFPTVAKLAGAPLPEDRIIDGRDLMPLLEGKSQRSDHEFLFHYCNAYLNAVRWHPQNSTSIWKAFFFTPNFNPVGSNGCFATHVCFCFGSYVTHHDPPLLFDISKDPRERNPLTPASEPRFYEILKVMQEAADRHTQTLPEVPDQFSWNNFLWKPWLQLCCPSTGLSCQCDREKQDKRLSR

Steryl-sulfatase = molecular target: T2, Steryl-sulfatase (Homo sapiens, UniProt P08842); test: In vitro inhibition of estrone sulfatase in placental microsomes; design: species or system Placenta
T2 sequence (P08842 whole entry): T1 sequence (whole entry)

Rattus norvegicus = species on record: Rattus norvegicus; test: Effect on uterine weight gain in ovariectomized rat, expressed as uterine weight/total body weight X100 (0.036+/-0.001); type: functional
[2] = molecular target: T3, Steryl-sulfatase (Rattus norvegicus) (UniProt P15589); test: In vivo inhibition of estrone sulfatase in rat liver after oral administration; type: organism-based; settings: concentration not given here
T3 sequence (whole entry): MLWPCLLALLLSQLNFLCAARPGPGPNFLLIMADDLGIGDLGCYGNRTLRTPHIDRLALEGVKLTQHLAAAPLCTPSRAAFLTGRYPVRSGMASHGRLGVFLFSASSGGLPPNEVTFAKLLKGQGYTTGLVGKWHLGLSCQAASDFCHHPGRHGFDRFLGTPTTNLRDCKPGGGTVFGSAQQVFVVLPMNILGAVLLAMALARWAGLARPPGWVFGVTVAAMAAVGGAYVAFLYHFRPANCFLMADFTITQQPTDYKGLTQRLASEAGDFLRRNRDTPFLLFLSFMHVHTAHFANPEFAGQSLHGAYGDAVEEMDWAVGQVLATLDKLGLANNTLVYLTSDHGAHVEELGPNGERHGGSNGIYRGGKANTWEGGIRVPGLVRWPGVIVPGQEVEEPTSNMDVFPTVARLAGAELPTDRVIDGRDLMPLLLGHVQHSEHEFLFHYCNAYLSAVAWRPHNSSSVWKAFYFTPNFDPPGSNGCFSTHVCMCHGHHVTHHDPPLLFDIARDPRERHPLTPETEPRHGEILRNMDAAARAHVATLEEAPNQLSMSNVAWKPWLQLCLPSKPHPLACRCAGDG

Compound	inhibition [1] [%]	pIC50 (Steryl-sulfatase)	Average uterine weight (Rattus norvegicus)	inhibition [2] [%]
C[C@]12CC[C@@H]3c4ccc(OS(N)(=O)=O)cc4CC[C@H]3[C@@H]1CC/C2=N\O	99	7.10	0.15	99
C[C@]12CC[C@@H]3c4ccc(OS(N)(=O)=O)cc4CC[C@H]3[C@@H]1CCC2=O [EMATE]	–	7.03	0.11	99
